According to ChEMBL document CHEMBL3885861, “Open TG-GATES”:

Species on record: Rattus norvegicus
Assay: Open TG-GATES - Regimen: Single
Assay type: toxicity, organism-based, Sprague-Dawley
Set-up: regimen Single, gender Male, age 6 weeks
Conditions: in vivo, po, 6 mg/kg, route gavage, dose level High; for APTT / Bas / Eos / Fbg / Hb / Ht / Lym / MCH / MCHC / MCV / Mono / Neu / PT / Plat / RBC / Ret / WBC: tissue Blood; for KIDNEY_L / KIDNEY_R / KIDNEY_TOTAL: tissue Kidney; for LIVER: tissue Liver; for A/G / ALP / ALT / AST / BUN / CRE / Ca / Cl / DBIL / GLC / IP / K / LDH / Na / PL / RALB / TBIL / TC / TG / TP / gamma-GTP: tissue Plasma

With `O=NN(CCCl)C(=O)NC1CCCCC1` [LOMUSTINE] the TERMINAL_BW (3 h) was 203.9 g, the APTT (3 h) was 16.2 s and the Bas (3 h) was 0%. For the same compound, the Eos (3 h) was 0.4%, the Fbg (3 h) was 212.6 mg/dL and the Hb (3 h) was 13.3 g/dL. The Ht (3 h) was 39.7%, the Lym (3 h) was 78.2% and the MCH (3 h) was 21.7 pg. The MCHC (3 h) was 33.4%, the MCV (3 h) was 64.8 fL and the Mono (3 h) was 9.4%. The Neu (3 h) was 12.2%, the PT (3 h) was 11.4 s and the Plat (3 h) was 106.7 x10_4/uL. For the same compound, the RBC (3 h) was 612.4 x10_4/ul, the Ret (3 h) was 8.5% and the WBC (3 h) was 112.2 x10_2/uL. For the same compound, the KIDNEY_L (3 h) was 0.9 g, the KIDNEY_R (3 h) was 0.9 g and the KIDNEY_TOTAL (3 h) was 1.9 g. It also gave an LIVER (3 h) of 10 g, an A/G (3 h) of 1.8 and an ALP (3 h) of 970.2 IU/L. For the same compound, the ALT (3 h) was 36.6 IU/L, the AST (3 h) was 67.6 IU/L and the BUN (3 h) was 13.8 mg/dL. It also gave a CRE (3 h) of 0.5 mg/dL, a Ca (3 h) of 11.3 mg/dL and a Cl (3 h) of 105.4 meq/L. It also gave a DBIL (3 h) of 0.028 mg/dL, a GLC (3 h) of 189.6 mg/dL and an IP (3 h) of 10.3 mg/dL. For the same compound, the K (3 h) was 4.7 meq/L, the LDH (3 h) was 161 IU/L and the Na (3 h) was 140.4 meq/L. For the same compound, the PL (3 h) was 134 mg/dL, the RALB (3 h) was 3.6 g/dL and the TBIL (3 h) was 0.3 mg/dL. It also gave a TC (3 h) of 73.8 mg/dL, a TG (3 h) of 56.2 mg/dL and a TP (3 h) of 5.6 g/dL. For the same compound, the gamma-GTP (3 h) was 1.6 IU/L, the TERMINAL_BW (6 h) was 201.4 g and the APTT (6 h) was 16.7 s. The Bas (6 h) was 0%, the Eos (6 h) was 0.4% and the Fbg (6 h) was 217.8 mg/dL. The Hb (6 h) was 13.1 g/dL, the Ht (6 h) was 39.4% and the Lym (6 h) was 78.6%. For the same compound, the MCH (6 h) was 22.2 pg, the MCHC (6 h) was 33.3% and the MCV (6 h) was 66.7 fL. The Mono (6 h) was 7.6%, the Neu (6 h) was 13.6% and the PT (6 h) was 12.1 s. The Plat (6 h) was 108.1 x10_4/uL, the RBC (6 h) was 591.6 x10_4/ul and the Ret (6 h) was 8.9%. For the same compound, the WBC (6 h) was 107.2 x10_2/uL, the KIDNEY_L (6 h) was 0.9 g and the KIDNEY_R (6 h) was 0.9 g. The KIDNEY_TOTAL (6 h) was 1.9 g, the LIVER (6 h) was 9.1 g and the A/G (6 h) was 1.9. The ALP (6 h) was 865 IU/L, the ALT (6 h) was 29.4 IU/L and the AST (6 h) was 66.2 IU/L. It also gave a BUN (6 h) of 10.4 mg/dL, a CRE (6 h) of 0.5 mg/dL and a Ca (6 h) of 11 mg/dL. The Cl (6 h) was 104.8 meq/L, the DBIL (6 h) was 0.008 mg/dL and the GLC (6 h) was 191.8 mg/dL. The IP (6 h) was 10.5 mg/dL, the K (6 h) was 4.7 meq/L and the LDH (6 h) was 152.6 IU/L. It also gave a Na (6 h) of 139.4 meq/L, a PL (6 h) of 132.2 mg/dL and an RALB (6 h) of 3.6 g/dL. For the same compound, the TBIL (6 h) was 0.3 mg/dL, the TC (6 h) was 76 mg/dL and the TG (6 h) was 36.6 mg/dL. For the same compound, the TP (6 h) was 5.6 g/dL, the gamma-GTP (6 h) was 1.8 IU/L and the TERMINAL_BW (9 h) was 203.2 g. The APTT (9 h) was 16.7 s, the Bas (9 h) was 0% and the Eos (9 h) was 0.4%. It also gave a Fbg (9 h) of 224.6 mg/dL, a Hb (9 h) of 13.2 g/dL and a Ht (9 h) of 40.1%. For the same compound, the Lym (9 h) was 79.2%, the MCH (9 h) was 21.9 pg and the MCHC (9 h) was 32.9%. For the same compound, the MCV (9 h) was 66.5 fL, the Mono (9 h) was 5.8% and the Neu (9 h) was 15%. For the same compound, the PT (9 h) was 12.2 s, the Plat (9 h) was 104.4 x10_4/uL and the RBC (9 h) was 603 x10_4/ul. For the same compound, the Ret (9 h) was 9.2%, the WBC (9 h) was 97 x10_2/uL and the KIDNEY_L (9 h) was 1 g. It also gave a KIDNEY_R (9 h) of 1 g, a KIDNEY_TOTAL (9 h) of 1.9 g and an LIVER (9 h) of 8.7 g. It also gave an A/G (9 h) of 2.2, an ALP (9 h) of 889.4 IU/L and an ALT (9 h) of 31.4 IU/L. The AST (9 h) was 67 IU/L, the BUN (9 h) was 13 mg/dL and the CRE (9 h) was 0.5 mg/dL. The Ca (9 h) was 10.9 mg/dL, the Cl (9 h) was 106.4 meq/L and the DBIL (9 h) was 0.028 mg/dL. It also gave a GLC (9 h) of 190.8 mg/dL, an IP (9 h) of 11.3 mg/dL and a K (9 h) of 5 meq/L. For the same compound, the LDH (9 h) was 139.4 IU/L, the Na (9 h) was 140 meq/L and the PL (9 h) was 139.4 mg/dL. For the same compound, the RALB (9 h) was 3.9 g/dL, the TBIL (9 h) was 0.3 mg/dL and the TC (9 h) was 78.2 mg/dL. For the same compound, the TG (9 h) was 39.8 mg/dL, the TP (9 h) was 5.7 g/dL and the gamma-GTP (9 h) was 1.4 IU/L. For the same compound, the TERMINAL_BW (24 h) was 212 g, the APTT (24 h) was 15.7 s and the Bas (24 h) was 0%. The Eos (24 h) was 0.4%, the Fbg (24 h) was 214.2 mg/dL and the Hb (24 h) was 13.1 g/dL. It also gave a Ht (24 h) of 39.2%, a Lym (24 h) of 84.4% and an MCH (24 h) of 21.5 pg. It also gave an MCHC (24 h) of 33.2%, an MCV (24 h) of 64.7 fL and a Mono (24 h) of 7%. The Neu (24 h) was 7.8%, the PT (24 h) was 12.3 s and the Plat (24 h) was 107.2 x10_4/uL. For the same compound, the RBC (24 h) was 606.6 x10_4/ul, the Ret (24 h) was 8.4% and the WBC (24 h) was 121.5 x10_2/uL. It also gave a KIDNEY_L (24 h) of 1 g, a KIDNEY_R (24 h) of 1 g and a KIDNEY_TOTAL (24 h) of 2 g. The LIVER (24 h) was 10.5 g, the A/G (24 h) was 2 and the ALP (24 h) was 873 IU/L. The ALT (24 h) was 35.2 IU/L, the AST (24 h) was 66.6 IU/L and the BUN (24 h) was 17.4 mg/dL. For the same compound, the CRE (24 h) was 0.5 mg/dL, the Ca (24 h) was 11.2 mg/dL and the Cl (24 h) was 105.2 meq/L. For the same compound, the DBIL (24 h) was 0.014 mg/dL, the GLC (24 h) was 180.4 mg/dL and the IP (24 h) was 8.1 mg/dL. It also gave a K (24 h) of 4.7 meq/L, an LDH (24 h) of 106.2 IU/L and a Na (24 h) of 137.8 meq/L. It also gave a PL (24 h) of 144.6 mg/dL, an RALB (24 h) of 3.9 g/dL and a TBIL (24 h) of 0.3 mg/dL. It also gave a TC (24 h) of 78.8 mg/dL, a TG (24 h) of 71.4 mg/dL and a TP (24 h) of 5.8 g/dL. For the same compound, the gamma-GTP (24 h) was 1.4 IU/L.
